Measured values reported in ChEMBL document CHEMBL6120978, “Anticancer activity of salinomycin quaternary phosphonium salts” (Eur J Med Chem, 2025).
The source made the active and inactive calls. No cut-off for these calls is given here.

Legend:
Pseudomonas aeruginosa = experiment: Antimicrobial activity against Pseudomonas aeruginosa ATCC 15442 incubated for 18 hrs by twofold microdilution method; format: functional
[1] = Selectivity index, ratio of IC50 for cytotoxicity against chinese hamster V79 cells to IC50 for cytotoxicity against human SW480 cells; format: toxicity, cell-based; conditions: V79 cells versus SW480 cells, read-out: Ratio IC50
[2] = Selectivity index, ratio of IC50 for cytotoxicity against chinese hamster V79 cells to IC50 for cytotoxicity against human SW620 cells; format: toxicity, cell-based; conditions: V79 cells versus SW620 cells, read-out: Ratio IC50
Lipid bilayer [3] = experiment: Induction of ionic transport in azolectin bilayer membrane assessed as specific channel-like structure formation in presence of HEPES buffer by electrophysiology technique
Lipid bilayer [4] = experiment: Induction of current generation in azolectin bilayer membrane in presence of HEPES buffer by electrophysiology technique
[5] = Selectivity index, ratio of IC50 for cytotoxicity against human HaCaT cells to IC50 for cytotoxicity against human PC-3 cells; format: toxicity, cell-based; conditions: HaCaT cells versus PC-3 cells, read-out: Ratio IC50
A549 [6] = experiment: Induction of mitochondrial respiration in human A549 cells assessed as decrease in oxygen consumption rate at 3 uM by Oxygraph-2K system; format: functional, cell-based
SW-620 = experiment: Cytotoxicity against human SW620 cells incubated for 72 hrs by MTT assay; format: functional, cell-based; conditions: SW-620, 72 h
MDA-MB-231 = experiment: Cytotoxicity against human MDA-MB-231 cells incubated for 72 hrs by MTT assay; format: functional, cell-based; conditions: MDA-MB-231, 72 h
Lipid bilayer [7] = experiment: Induction of ionic transport in azolectin bilayer membrane assessed as irregular disturbance in membrane permeability in presence of HEPES buffer by electrophysiology technique
[8] = Selectivity index, ratio of IC50 for cytotoxicity against chinese hamster V79 cells to IC50 for cytotoxicity against human PC-3 cells; format: toxicity, cell-based; conditions: V79 cells versus PC-3 cells, read-out: Ratio IC50
[9] = Selectivity index, ratio of IC50 for cytotoxicity against human HaCaT cells to IC50 for cytotoxicity against human SW620 cells; format: toxicity, cell-based; conditions: HaCaT cells versus SW620 cells, read-out: Ratio IC50
[10] = Selectivity index, ratio of IC50 for cytotoxicity against human HaCaT cells to IC50 for cytotoxicity against human A549 cells; format: toxicity, cell-based; conditions: HaCaT cells versus A549 cells, read-out: Ratio IC50
SW480 = experiment: Cytotoxicity against human SW480 cells incubated for 72 hrs by MTT assay; format: functional, cell-based; conditions: SW480, 72 h
Escherichia coli = experiment: Antimicrobial activity against Escherichia coli ATCC 25922 incubated for 18 hrs by twofold microdilution method; format: functional
[11] = system: Staphylococcus epidermidis; experiment: Antimicrobial activity against Staphylococcus epidermidis ATCC 12228 incubated for 18 hrs by twofold microdilution method; format: functional
[12] = Selectivity index, ratio of IC50 for cytotoxicity against human HaCaT cells to IC50 for cytotoxicity against human MDA-MB-231 cells; format: toxicity, cell-based; conditions: HaCaT cells versus MDA-MB-231 cells, read-out: Ratio IC50
[13] = Selectivity index, ratio of IC50 for cytotoxicity against chinese hamster V79 cells to IC50 for cytotoxicity against human MDA-MB-231 cells; format: toxicity, cell-based; conditions: V79 cells versus MDA-MB-231 cells, read-out: Ratio IC50
Staphylococcus aureus [14] = experiment: Antimicrobial activity against Staphylococcus aureus ATCC 25923 incubated for 18 hrs by twofold microdilution method; format: functional
A549 [15] = experiment: Cytotoxicity against human A549 cells incubated for 72 hrs by MTT assay; format: functional, cell-based; conditions: A549, 72 h
[16] = Selectivity index, ratio of IC50 for cytotoxicity against human HaCaT cells to IC50 for cytotoxicity against human SW480 cells; format: toxicity, cell-based; conditions: HaCaT cells versus SW480 cells, read-out: Ratio IC50
[17] = Cytotoxicity against human HaCaT cells incubated for 72 hrs by MTT assay; format: toxicity, cell-based
Staphylococcus aureus [18] = experiment: Antimicrobial activity against Staphylococcus aureus NCTC 4163 incubated for 18 hrs by twofold microdilution method; format: functional
Staphylococcus aureus [19] = experiment: Antimicrobial activity against Staphylococcus aureus ATCC 29213 incubated for 18 hrs by twofold microdilution method; format: functional
[20] = system: Staphylococcus epidermidis; experiment: Antimicrobial activity against Staphylococcus epidermidis ATCC 35984 incubated for 18 hrs by twofold microdilution method; format: functional
[21] = Cytotoxicity against chinese hamster V79 cells incubated for 72 hrs by MTT assay; format: toxicity, cell-based, Cricetulus griseus
A549 [22] = experiment: Induction of mitochondrial respiration in human A549 cells assessed as fold increase in oxygen consumption rate at 1 uM by Oxygraph-2K system; format: functional
[23] = Selectivity index, ratio of IC50 for cytotoxicity against chinese hamster V79 cells to IC50 for cytotoxicity against human A549 cells; format: toxicity, cell-based; conditions: V79 cells versus A549 cells, read-out: Ratio IC50
PC-3 = experiment: Cytotoxicity against human PC-3 cells incubated for 72 hrs by MTT assay; format: functional, cell-based; conditions: PC-3, 72 h
Lipid bilayer [24] = experiment: Induction of ionic transport in azolectin bilayer membrane assessed as membrane rupture in presence of HEPES buffer by electrophysiology technique
Staphylococcus aureus [25] = experiment: Antimicrobial activity against Staphylococcus aureus ATCC 6538 incubated for 18 hrs by twofold microdilution method; format: functional
Mitochondrial membrane [26] = experiment: Induction of mitochondrial membrane potential loss in human MDA-MB-231 cells assessed as green fluorescence at IC50 incubated for 48 hrs MitoTracker Green FM staining based flow cytometry analysis (reference value: 8.86 %); format: cell membranes
Mitochondrial membrane [27] = experiment: Induction of mitochondrial membrane potential loss in human A549 cells assessed as red fluorescence at IC50 incubated for 48 hrs MitoTrackerRed CMXRos staining based flow cytometry analysis (reference value: 91.1 %); format: cell membranes
Mitochondrial membrane [28] = experiment: Induction of mitochondrial membrane potential loss in human A549 cells assessed as green fluorescence at IC50 incubated for 48 hrs MitoTracker Green FM staining based flow cytometry analysis (reference value: 8.93 %); format: cell membranes
Mitochondrial membrane [29] = experiment: Induction of mitochondrial membrane potential loss in human MDA-MB-231 cells assessed as red fluorescence at IC50 incubated for 48 hrs MitoTrackerRed CMXRos staining based flow cytometry analysis (reference value: 91.1 %); format: cell membranes

Structure (SMILES) | MIC (Pseudomonas aeruginosa) | selectivity ratio [1] | selectivity ratio [2] | selectivity ratio [5] | IC50 (SW-620) | IC50 (MDA-MB-231) | selectivity ratio [8] | selectivity ratio [9] | selectivity ratio [10] | IC50 (SW480) | MIC (Escherichia coli) | MIC [11] | selectivity ratio [12] | selectivity ratio [13] | MIC (Staphylococcus aureus [14]) | IC50 (A549 [15]) | selectivity ratio [16] | IC50 at 72 h [17] | MIC (Staphylococcus aureus [18]) | MIC (Staphylococcus aureus [19]) | also measured
CC[C@@H](C(=O)[C@@H](C)[C@@H](O)[C@H](C)[C@@H]1O[C@@H]([C@@H](CC)C(=O)OCCCC[P+](c2ccc(C)cc2)(c2ccc(C)cc2)c2ccc(C)cc2)CC[C@@H]1C)[C@H]1O[C@]2(C=C[C@@H](O)[C@]3(CC[C@@](C)([C@H]4CC[C@](O)(CC)[C@H](C)O4)O3)O2)[C@H](C)C[C@@H]1C.[Br-] | > 256 µg/mL | 8.6 | 7.5 | 0.5 | 500 nM | 830 nM | 1.7 | 2 | 1.3 | 440 nM | > 256 µg/mL | 4 µg/mL | 1.2 | 4.5 | 4 µg/mL | 810 nM | 2.3 | 1020 nM | 2 µg/mL | 4 µg/mL | Activity (Lipid bilayer [3]): inactive; Activity (Lipid bilayer [4]): Dose-dependent-effect; Activity (A549 [6]): inactive; Activity (Lipid bilayer [7]): inactive; MIC [20]: 4 µg/mL; IC50 at 72 h [21]: 3770 nM; fold change (FC) (A549 [22]): 2.5; selectivity ratio [23]: 4.7; IC50 (PC-3): 2210 nM; Activity (Lipid bilayer [24]): inactive; MIC (Staphylococcus aureus [25]): 2 µg/mL
N#CC(C#N)=NNc1cccc(Cl)c1 | – | – | – | – | – | – | – | – | – | – | – | – | – | – | – | – | – | – | – | – | Activity (Mitochondrial membrane [26]): 87.8%; Activity (Mitochondrial membrane [27]): 20.2%; Activity (Mitochondrial membrane [28]): 79.6%; Activity (Mitochondrial membrane [29]): 12.3%
CC[C@@H](C(=O)[C@@H](C)[C@@H](O)[C@H](C)[C@@H]1O[C@@H]([C@@H](CC)C(=O)OCCCC[P+](c2ccccc2)(c2ccccc2)c2ccc(N(C)C)cc2)CC[C@@H]1C)[C@H]1O[C@]2(C=C[C@@H](O)[C@]3(CC[C@@](C)([C@H]4CC[C@](O)(CC)[C@H](C)O4)O3)O2)[C@H](C)C[C@@H]1C.[Br-] | > 256 µg/mL | 0.6 | 3.4 | 0.5 | 110 nM | 780 nM | 0.1 | 11.6 | 1.7 | 570 nM | > 256 µg/mL | 4 µg/mL | 1.6 | 0.5 | 4 µg/mL | 750 nM | 2.2 | 1280 nM | 2 µg/mL | 2 µg/mL | Activity (Lipid bilayer [3]): inactive; Activity (Lipid bilayer [4]): Dose-dependent-effect; Activity (A549 [6]): inactive; Activity (Lipid bilayer [7]): inactive; MIC [20]: 4 µg/mL; IC50 at 72 h [21]: 370 nM; fold change (FC) (A549 [22]): 2.5; selectivity ratio [23]: 0.5; IC50 (PC-3): 2520 nM; Activity (Lipid bilayer [24]): inactive; MIC (Staphylococcus aureus [25]): 2 µg/mL
CCCC[P+](CCCC)(CCCC)CCCCCCOC(=O)[C@H](CC)[C@H]1CC[C@H](C)[C@H]([C@@H](C)[C@H](O)[C@H](C)C(=O)[C@H](CC)[C@H]2O[C@]3(C=C[C@@H](O)[C@]4(CC[C@@](C)([C@H]5CC[C@](O)(CC)[C@H](C)O5)O4)O3)[C@H](C)C[C@@H]2C)O1.[Br-] | > 256 µg/mL | 1.3 | 1 | 0.2 | 670 nM | 1020 nM | 0.2 | 0.9 | 0.6 | 500 nM | > 256 µg/mL | 2 µg/mL | 0.6 | 0.6 | 2 µg/mL | 1050 nM | 1.2 | 620 nM | 2 µg/mL | 2 µg/mL | MIC [20]: 2 µg/mL; IC50 at 72 h [21]: 650 nM; selectivity ratio [23]: 0.6; IC50 (PC-3): 2890 nM; MIC (Staphylococcus aureus [25]): 2 µg/mL
CC[C@@H](C(=O)[C@@H](C)[C@@H](O)[C@H](C)[C@@H]1O[C@@H]([C@@H](CC)C(=O)OCCCCCC[P+](c2ccccc2)(c2ccccc2)c2ccccc2)CC[C@@H]1C)[C@H]1O[C@]2(C=C[C@@H](O)[C@]3(CC[C@@](C)([C@H]4CC[C@](O)(CC)[C@H](C)O4)O3)O2)[C@H](C)C[C@@H]1C.[Br-] | 256 µg/mL | 0.9 | 0.2 | 0.4 | 2570 nM | 2650 nM | 0.3 | 0.3 | 1.1 | 710 nM | 256 µg/mL | 2 µg/mL | 0.3 | 0.2 | 2 µg/mL | 720 nM | 1.1 | 780 nM | 2 µg/mL | 2 µg/mL | MIC [20]: 2 µg/mL; IC50 at 72 h [21]: 630 nM; selectivity ratio [23]: 0.9; IC50 (PC-3): 1850 nM; MIC (Staphylococcus aureus [25]): 2 µg/mL
